Columns and labels:
[1] = test system: larvae of the mustard beetle (Phaedon cochleariae); assay: Phaedon test (spray treatment); type: in vivo; conditions: active compound concentration 500 ppm, after 7 days, chinese cabbage leaf discs
Description: (§1) [table] To produce a suitable preparation of active compound, 1 part by weight of active compound is mixed with the stated amounts of solvents and emulsifier, and the concentrate is diluted with emulsifier-containing water to the desired concentration. Discs of chinese cabbage (Brassica pekinensis) are sprayed with an active compound preparation of the desired concentration and, after drying, populated with larvae of the mustard beetle (Phaedon cochleariae). After the desired period of time, the effect in % is determined. 100% means that all beetle larvae have been killed; 0% means that none of the beetle larvae have been killed.

[2] = logP determination by HPLC on a reversed-phase column (C 18), EEC Directive 79/831 Annex V.A8; type: physicochemical
Description: The stated logP values were determined in accordance with EEC Directive 79/831 Annex V.A8 by HPLC (high performance liquid chromatography) on a reversed-phase column (C 18). Temperature: 43° C.

Puccinia recondita = assay: Puccinia Recondita Test (Cereal)/Seed Treatment; type: in vivo; conditions: 50 g/100 kg of seed; seed treatment; evaluation about 7 days after inoculation
Description: Puccinia Recondita Test (Cereal)/Seed Treatment
The active compounds are applied as liquid dressings, 1 part by weight of the active compound being mixed with 10 parts by weight of a solvent. For each concentration tested, the appropriate volume from the mixture is pipetted. For the dressing, the preparation is pipetted onto the seed and the seed is shaken in a closed glass bottle for 3 minutes. At 3×12 grains, the seed is sown into a soil/sand mixture in pots. The pots are initially incubated at 5° C. in the dark for 14 days and then cultivated in a greenhouse at a temperature of about 10° C. and 15 hours of light per day for a further 14 days. The plants are then sprayed with a spore suspension of Puccinia recondita and subsequently placed in an incubation cabin at 18° C. and 100% relative atmospheric humidity for 48 hours. The plants are then placed in a greenhouse at a temperature of about 18° C. and a relative atmospheric humidity of 80%. Evaluation is carried out about 7 days after the inoculation. 0% means an efficacy which corresponds to that of the control, whereas an efficacy of 100% means that no infection is observed.

[3] = test system: green peach aphid (Myzus persicae); assay: Myzus test (spray treatment); type: in vivo; conditions: active compound concentration 500 ppm, after 5 days, chinese cabbage leaf discs
Description: as §1, with “pekinensis) which are infested by all stages of the green peach aphid (Myzus persicae)” for “pekinensis)”, “concentration.” for “concentration and, after drying, populated with larvae of the mustard beetle (Phaedon cochleariae).”, “aphids” for “beetle larvae”

[4] = method marker [b], isomer A / isomer B / isomer mixture as noted in the cell

Which efficacy [1] does the source give for `CCCC1=NOC(CON=C(CCC)c2cccc(C)n2)(CON=C(CCC)c2cccc(C)n2)C1` (stereo not drawn) [Compound 618] here?
The efficacy was 100%.

What about the logP ([2]; method marked [b] in Table 1) of the same molecule?
Its logP is 5.71^[b].

With `CC(=NOCC(C)(C)CON=C(C)c1cccc(C)n1)c1cccc(C)n1` (single isomer, unassigned) [Compound 141] as the molecule, how does the efficacy (Puccinia recondita) read?
Its efficacy is no less than 70%.

What about the logP [2, 4] of the same molecule?
The logP was 4.40^[b] (isomer A).

Which efficacy [3] does the source give for `CC(=NOCC1(CON=C(C)c2cccc(C)n2)CC(C(C)(C)C)=NO1)c1cccc(C)n1` (stereo not drawn) [Compound 600] here?
Its efficacy is 100%.

And the logP ([2]; method marked [b] in Table 1)?
Its logP is 3.85^[b].

With `CC(=NOCCCCON=C(C)c1nc(C)c(C)s1)c1nc(C)c(C)s1` [compound 125] as the molecule, how does the logP [2, 4] read?
Its logP is 5.59^[b].

For `CC(=NOCCC(C)ON=C(C)c1cccc(C)n1)c1cccc(C)n1` (stereo not drawn) [Compound 295], which logP ([2]; value marked [b]) is on record?
Its logP is 3.34^[b].

For `CC(=NOCC(C)(C)CON=C(c1ccccc1)c1ncccc1C)c1cccc(C)n1` [compound 365], which logP ([2]; value marked [b]) is on record?
The logP was 4.51^[b].

With `CC(=NOCC(C)CON=C(C)c1nc(C)ccc1C)c1nc(C)ccc1C` (single isomer, unassigned) [compound 268] as the molecule, how does the logP ([2]; value marked [b]) read?
The logP was 2.08^[b] (isomer A).

Which logP ([2]; value marked [b]) does the source give for `CC(=NOCCCCCCON=C(C)c1cccc(CC(C)C)n1)c1cccc(C)n1` [compound 342] here?
Its logP is 7.36^[b].

With `C=C(CON=C(C)c1cccc(C)n1)CON=C(N)c1nc(COC)c(C)c(COC)n1` [compound 183] as the molecule, how does the logP [2, 4] read?
The logP was 1.92^[b].

With `CC(=NOCC(C)(C)CON=C(C)c1cccc(Cc2ccccc2)n1)c1cccc(C)n1` [Compound 364] as the molecule, how does the logP ([2]; value marked [a]) read?
The logP was 6.47^[a].

Which logP ([2]; method marked [b] in Table 1) does the source give for `CC(=NOCC1(CON=C(C)c2cc(C)cc(C)n2)CC1)c1cc(C)cc(C)n1` [Compound 556] here?
Its logP is 2.11^[b].

And the logP ([2]; method marked [c] in Table 1)?
The logP was 5.97^[c].

For `CC(=NOCCCCON=C(C)c1cccc(CC(C)C)n1)c1cccc(C)n1` [compound 326], which logP ([2]; value marked [b]) is on record?
Its logP is 6.16^[b].

For `C=C(CON=C(Br)c1cccc(C)n1)CON=C(Br)c1cccc(C)n1` [compound 746], which logP ([2]; method marked [b] in Table 1) is on record?
The logP was 4.41^[b].

What does the source list for `CC(=NOCC(CON=C(C)c1nc(C)ccc1C)Cc1ccccc1)c1nc(C)ccc1C` (stereo not drawn) [compound 590]?
logP ([2]; method marked [b] in Table 1): 4.15^[b]; logP ([2]; method marked [c] in Table 1): 6.01^[c]

Which logP ([2]; value marked [a]) does the source give for `CC(=NOCC(C)CON=C(C)c1cc(C2CC2)cc(C)n1)c1cc(Cl)cc(C)n1` (stereo not drawn) [compound 846] here?
Its logP is 5.23^[a].

And the logP ([2]; value marked [c])?
Its logP is 7.36^[c].

For `CCCC(CON=C(C)c1cc(C)cc(C)n1)CON=C(C)c1cc(C)cc(C)n1` (stereo not drawn) [Compound 555], which logP ([2]; method marked [b] in Table 1) is on record?
Its logP is 3.22^[b].

And the logP ([2]; method marked [c] in Table 1)?
The logP was 7.15^[c].

For `CC(=NOCCCON=C(C)c1ncccc1C)c1ncccc1C` (single isomer, unassigned) [compound 85], which logP ([2]; method marker [a] (footnote not shown), isomer A / isomer B / isomer mixture as noted in the cell) is on record?
The logP was 2.15^[a] (isomer A).

For `CC(=NOCCCCON=C(C)c1ccccc1Cl)c1cccc(C)n1` [compound 379], which logP ([2]; value marked [b]) is on record?
The logP was 4.85^[b].

With `CC(=NOCC1(CON=C(C)c2cc(C)cc(C)n2)CC(c2ccc(Cl)cc2)=NO1)c1cc(C)cc(C)n1` (stereo not drawn) [compound 644] as the molecule, how does the logP ([2]; method marked [b] in Table 1) read?
The logP was 3.28^[b].

With `Cc1cccc(C(Cl)=NOCC(C)CON=C(Cl)c2cccc(C)n2)n1` (stereo not drawn) [Compound 824] as the molecule, how does the logP ([2]; value marked [a]) read?
The logP was 4.58^[a].

Which logP [2, 4] does the source give for `C=C(CON=C(C)c1ccc(Cl)nc1)CON=C(C)c1cccc(C)n1` [compound 201] here?
Its logP is 3.94^[b].

With `C=C(CON=C(C)c1cccc(C)n1)CON=C(C#N)c1ccc(C)c(C)n1` [Compound 821] as the molecule, how does the logP ([2]; value marked [a]) read?
The logP was 3.74^[a].

For `COc1cc(C)nc(C(C)=NOCCCCCCON=C(C)c2cccc(C)n2)c1` [compound 462], which logP ([2]; value marked [b]) is on record?
Its logP is 4.15^[b].

With `CC(=NOCCCCCCON=C(C)c1cccc(C)n1)c1cnccn1` [compound 513] as the molecule, how does the logP ([2]; value marked [b]) read?
Its logP is 4.25^[b].

For `CC(=NOCc1cccc(CON=C(C)c2cccc(C)n2)c1)c1cccc(C)n1` [compound 704], which logP ([2]; method marked [b] in Table 1) is on record?
The logP was 4.17^[b].

With `C=C(CON=C(C)c1cccc(C)n1)CON=C(N)c1nc(C)cc(OC)n1` [Compound 186] as the molecule, how does the logP [2, 4] read?
The logP was 2.11^[b].
